Data set [1] in a line: Tissue concentration of etodolac by administration route (oral vs transdermal), leg muscle of rat. The conditions noted are these: 12 mg/kg etodolac suspended in CMC, FIG. 8. The data set is classed as in vivo. As for the experimental part:
In the case of oral administration, four male SD rats (5 weeks old) are used as a group and 12 mg/kg of etodolac suspended in CMC is forced to be taken in by using a probe. The dose is fixed around about 1.1˜1.5 mg/rat. After a lapse of a certain period of time since the forced feeding, an animal is killed by blood removal under anesthesia. Later the leg was amputated, divided into skin and other tissues and the drug concentrations in the muscle tissue and plasma were assayed.
The applied area of the sample was adjusted so that transdermally available amount of etodolac was about 0.7 mg/rat when applied for 24 hours. After a lapse of a certain period of time since the application of the sample, an animal is killed by blood removal under anesthesia. Later the leg was amputated, divided into skin and other tissues and the drug concentrations in the muscle tissue and plasma were assayed.

Structures are written as SMILES.

A word on the pKa: it is the negative logarithm of the acid dissociation constant. As to `CCc1cccc2c3c([nH]c12)C(CC)(CC(=O)O)OCC3` (stereo not drawn) [etodolac], in data set [1], the “drug-concentration in the muscle tissue” value was “not increased so much”. For the same compound, in “physchem”, the pKa came to 4.65.
With `CC(O)CN(CC(C)O)CC(C)O` (stereo not drawn) [triisopropanolamine], the pKa in the data set “physchem” was 8.03.

For the origin of these results see patent publication US8697096B2, “Tape preparation comprising etodolac in ionic liquid form” (priority 2007, dated 2014).
